pIC50: −log10 of the molar value. Where two headings read alike, the source gives them in different places.
Experiments:
[1] = target: T1, AHR (Mus musculus, UniProt P30561); assay: In vitro assay 3: antagonism in mouse cell line (AHR transactivation, firefly luciferase reporter, kynurenic acid prestimulated); format: cell-based
T1 sequence (P30561 1-848 P471L/N533S/M589L): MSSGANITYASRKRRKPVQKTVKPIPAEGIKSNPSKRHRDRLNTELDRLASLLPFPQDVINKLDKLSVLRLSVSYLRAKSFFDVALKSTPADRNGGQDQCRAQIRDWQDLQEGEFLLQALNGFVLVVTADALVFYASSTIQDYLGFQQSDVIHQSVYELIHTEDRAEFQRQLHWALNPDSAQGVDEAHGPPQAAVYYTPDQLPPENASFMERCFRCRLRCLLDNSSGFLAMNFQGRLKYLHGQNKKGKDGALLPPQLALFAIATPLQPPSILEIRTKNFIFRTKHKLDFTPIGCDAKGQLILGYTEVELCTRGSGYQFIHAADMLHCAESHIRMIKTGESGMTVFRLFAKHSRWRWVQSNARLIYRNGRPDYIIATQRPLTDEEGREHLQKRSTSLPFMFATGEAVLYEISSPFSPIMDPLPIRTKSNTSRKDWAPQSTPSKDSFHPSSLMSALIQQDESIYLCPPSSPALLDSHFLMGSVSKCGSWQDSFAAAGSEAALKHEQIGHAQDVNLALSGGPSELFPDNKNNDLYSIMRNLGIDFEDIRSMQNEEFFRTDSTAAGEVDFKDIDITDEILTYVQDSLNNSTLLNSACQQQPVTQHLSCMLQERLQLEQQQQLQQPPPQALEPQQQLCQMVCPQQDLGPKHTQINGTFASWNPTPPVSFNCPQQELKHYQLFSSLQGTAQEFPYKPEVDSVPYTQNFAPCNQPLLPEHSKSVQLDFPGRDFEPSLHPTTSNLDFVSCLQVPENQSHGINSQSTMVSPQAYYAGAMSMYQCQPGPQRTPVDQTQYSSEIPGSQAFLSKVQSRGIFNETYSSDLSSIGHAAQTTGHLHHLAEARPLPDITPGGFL
Summary of the method: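 Luminescence from an AHR-dependent DRE-luciferase reporter, stably integrated in mouse cells, quantifies blockade of kynurenic acid-driven activation. Unstimulated cells mark maximal inhibition; normalization uses both control types, and multiply tested compounds carry mean or median values.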

[2] = target: T2, AHR (Homo sapiens, UniProt P35869); assay: In vitro assay 1: antagonism in human cell line (AHR transactivation, firefly luciferase reporter, kynurenic acid prestimulated); format: cell-based; settings: AHR Antagonism Human IC50 [M], firefly luciferase reporter
T2 construct: U87 MG glioblastoma cells (ATCC #HTB-14) endogenously expressing AHR; endogenous in cells; host or cells: U87 MG glioblastoma cells (ATCC #HTB-14)
T2 sequence (P35869 11-848): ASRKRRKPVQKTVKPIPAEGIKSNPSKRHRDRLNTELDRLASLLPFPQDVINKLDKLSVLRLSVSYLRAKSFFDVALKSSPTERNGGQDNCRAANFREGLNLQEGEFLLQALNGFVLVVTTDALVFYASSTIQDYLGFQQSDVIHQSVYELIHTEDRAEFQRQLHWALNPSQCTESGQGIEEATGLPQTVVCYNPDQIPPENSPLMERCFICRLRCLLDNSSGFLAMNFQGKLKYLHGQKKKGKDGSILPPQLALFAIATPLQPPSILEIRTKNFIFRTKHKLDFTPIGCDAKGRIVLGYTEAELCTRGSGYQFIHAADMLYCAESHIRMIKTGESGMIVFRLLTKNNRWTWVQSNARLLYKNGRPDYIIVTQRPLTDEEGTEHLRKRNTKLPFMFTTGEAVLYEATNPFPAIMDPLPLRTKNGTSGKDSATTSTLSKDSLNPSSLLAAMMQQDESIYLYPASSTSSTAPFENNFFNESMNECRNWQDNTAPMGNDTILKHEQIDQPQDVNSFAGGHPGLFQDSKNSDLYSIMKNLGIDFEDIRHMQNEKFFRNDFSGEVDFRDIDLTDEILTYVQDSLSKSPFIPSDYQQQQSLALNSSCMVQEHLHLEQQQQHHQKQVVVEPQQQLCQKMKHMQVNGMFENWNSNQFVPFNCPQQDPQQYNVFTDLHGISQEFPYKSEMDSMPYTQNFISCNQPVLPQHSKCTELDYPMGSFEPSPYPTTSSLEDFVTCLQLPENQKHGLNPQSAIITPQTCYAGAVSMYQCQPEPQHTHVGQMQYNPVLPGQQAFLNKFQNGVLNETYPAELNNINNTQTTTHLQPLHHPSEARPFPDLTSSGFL
Summary of the method: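 Antagonism is measured against kynurenic acid prestimulation in U87 MG glioblastoma cells carrying stable DRE-luciferase and Renilla reporters. Positive inhibition control: 150 μM kynurenic acid with 5 μM staurosporine. Values are normalized to controls; repeats are averaged or given as medians.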

[3] = Hepa 1c1c7 cells, 200 μM kynurenic acid, 20 hours, firefly luciferase reporter, read-out: AHR Antagonism Mouse IC50

Compound | pIC50 [1, 3] | IC50 [2] [M] | pIC50 ([1]; read-out: AHR Antagonism Mouse IC50, Hepa 1c1c7 cells, 200 μM kynurenic acid, 20 hours, firefly luciferase reporter)
C[C@@H](Nc1nc2c(C(F)(F)F)cccc2c2nc(-c3cnn(C)c3)nn12)C(=O)N1CCOCC1 [Example 874, (2R)-2-{[2-(1-methyl-1H-pyrazol-4-yl)-7-(trifluoromethyl)[1,2,4]triazolo[1,5-c]quinazolin-5-yl]amino}-1-(morpholin-4-yl)propan-1-one] | 7.21 | 2.31e-08 | 
C[C@@H](Nc1nc2c(C(F)(F)F)cccc2c2nc(-c3cnn(C)c3)nn12)C(=O)N1CCN(C)CC1 [Example 875, (2R)-1-(4-methylpiperazin-1-yl)-2-{[2-(1-methyl-1H-pyrazol-4-yl)-7-(trifluoromethyl)[1,2,4]triazolo[1,5-c]quinazolin-5-yl]amino}propan-1-one] | 7.50 | 1.69e-08 | 
C[C@@H](Nc1nc2c(C(F)(F)F)cccc2c2nc(-c3cnn(C)c3)nn12)C(=O)N(C)CCN(C)C [Example 877, N-[2-(dimethylamino)ethyl]-N-methyl-N^2-[2-(1-methyl-1H-pyrazol-4-yl)-7-(trifluoromethyl)[1,2,4]triazolo[1,5-c]quinazolin-5-yl]-D-alaninamide] | 6.80 | 8.72e-08 | 
COCCN(C)C(=O)[C@@H](C)Nc1nc2c(C(F)(F)F)cccc2c2nc(-c3cnn(C)c3)nn12 [Example 878, N-(2-methoxyethyl)-N-methyl-N^2-[2-(1-methyl-1H-pyrazol-4-yl)-7-(trifluoromethyl)[1,2,4]triazolo[1,5-c]quinazolin-5-yl]-D-alaninamide] | 7.36 | 2.78e-08 | 
C[C@@H](Nc1nc2c(C(F)(F)F)cccc2c2nc(-c3cnn(C)c3)nn12)C(=O)N1CC2(COC2)C1 [Example 880, (2R)-2-{[2-(1-methyl-1H-pyrazol-4-yl)-7-(trifluoromethyl)[1,2,4]triazolo[1,5-c]quinazolin-5-yl]amino}-1-(2-oxa-6-azaspiro[3.3]heptan-6-yl)propan-1-one] |  | 5.77e-08 | 6.71
COc1ccc(-c2nc3c4ccccc4nc(N[C@H](C)C(=O)NCCN4CCN(C)CC4)n3n2)cc1 [Example 881, N^2-[2-(4-methoxyphenyl)[1,2,4]triazolo[1,5-c]quinazolin-5-yl]-N-[2-(4-methylpiperazin-1-yl)ethyl]-D-alaninamide] | 7.91 | 6.04e-09 | 
COc1ccc(-c2nc3c4ccccc4nc(N[C@H](C)C(=O)N4CCN(C(=O)OC(C)(C)C)CC4)n3n2)cc1 [Example 882, tert-butyl 4-{N-[2-(4-methoxyphenyl)[1,2,4]triazolo[1,5-c]quinazolin-5-yl]-D-alanyl}piperazine-1-carboxylate] | 8.29 | 5.91e-09 | 
COc1ccc(-c2nc3c4cccc(Br)c4nc(N[C@H](C)C(=O)N4CCN(C(=O)OC(C)(C)C)CC4)n3n2)cc1 [Example 883, tert-butyl 4-{N-[7-bromo-2-(4-methoxyphenyl)[1,2,4]triazolo[1,5-c]quinazolin-5-yl]-D-alanyl}piperazine-1-carboxylate] | 8.11 | 5.84e-09 | 
COc1ccc(-c2nc3c4ccccc4nc(N[C@H](C)C(=O)NCCN4CCN(C(=O)OC(C)(C)C)CC4)n3n2)cc1 [Example 884, tert-butyl 4-[2-({N-[2-(4-methoxyphenyl)[1,2,4]triazolo[1,5-c]quinazolin-5-yl]-D-alanyl}amino)ethyl]piperazine-1-carboxylate] | 8.08 | 6.66e-09 | 
COCCNC(=O)[C@@H](C)Nc1nc2c(Br)cccc2c2nc(-c3ccc(OC)cc3)nn12 [Example 885, N^2-[7-bromo-2-(4-methoxyphenyl)[1,2,4]triazolo[1,5-c]quinazolin-5-yl]-N-(2-methoxyethyl)-D-alaninamide] | 8.53 | 1.24e-09 | 
C[C@@H](Nc1nc2c(Br)cccc2c2nc(-c3cnn(C)c3)nn12)C(=O)N1CCN(C(=O)OC(C)(C)C)CC1 [Example 886, tert-butyl 4-{N-[7-bromo-2-(1-methyl-1H-pyrazol-4-yl)[1,2,4]triazolo[1,5-c]quinazolin-5-yl]-D-alanyl}piperazine-1-carboxylate] | 7.00 | 6.83e-08 | 
